# Laboratory results published in the METLIN SMRT retention time set (Domingo-Almenara et al. 2019).
# Test: gradient 5% acetonitrile 3 min, to 50% in 2 min, to 85% in 15 min, held 3 min, 100 µL/min
# Conditions: column: Zorbax Extend-C18 2.1 x 50 mm; eluents: water / acetonitrile, 0.1% formic acid
# Method in brief: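 Pure standards were analyzed in mixtures of ~100 molecules using HPLC coupled to a quadrupole time-of-flight mass spectrometer, in both positive and negative ionization mode. Separation used a Zorbax Extend-C18 column (2.1 × 50 mm, 1.8 μm) at 100 μL/min, with water and acetonitrile each containing 0.1% formic acid. Dead and dwell volumes were 40 μL and 900 μL, and data were collected over 3 months. Retention time was read from computationally picked adduct peaks, each inspected manually.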
row,Structure (SMILES),RP-LC retention time [s]
1,O=C(CN1c2ccc(F)cc2-c2ccccc2S1(=O)=O)NCCCN1CCOCC1,625
2,Cc1ccc(-c2cc(N3CCOCC3)c3cc(NC(=O)NC4CCCCC4)ccc3n2)cc1,787
3,O=C(c1ccc(Nc2c(-c3ccccc3)nc3cnccn23)cc1)N1CCOCC1,655
4,O=C(NC(c1nnc(-c2ccccc2)o1)c1ccccc1F)c1ccco1 (configuration not stated),851
5,COc1ccc(C(=O)N2CCC3(CC2)NCc2ccccc2-n2ccnc23)cc1OC,594
6,COc1ccc(-c2nc(NCCN3CCCCC3C)c3ccccc3n2)cc1 (configuration not stated),598
7,O=C(C1CCCCC1)N1CCN(c2nc(CN3CCOCC3)cs2)CC1,617
8,O=C(NCCC1CCN(C(=O)Nc2cc(F)ccc2F)CC1)C1CCCC1,769
9,CCc1c(C2CCN(C(=O)NCCc3ccccc3)CC2)noc1N,732
10,COc1cccc(N2CCN(c3ccc(-c4nc(-c5cccc(F)c5)no4)cn3)CC2)c1,1310
11,CN(C)S(=O)(=O)c1ccc2c(c1)N(CC(=O)NCc1cccc(F)c1)C(=O)C1CCCCN21 (configuration not stated),900
12,Cc1ccc(NC(=O)C2CCN(C(=O)c3ncn4c3COC(c3ccc(F)cc3)C4)CC2)cc1F (configuration not stated),854
13,O=C(Nc1ccccc1)C1CCN(C(=O)c2ncn3c2COC(c2ccc(F)cc2)C3)CC1 (configuration not stated),791
14,CCCn1c(=O)sc2cc(S(=O)(=O)N3CCC(C(=O)N(C)Cc4ccccc4)CC3)ccc21,985
15,O=C(NCCC1=CCCCC1)C1CCCN(c2ncc(-c3cccc(F)c3)cn2)C1 (configuration not stated),1220
16,COc1ccc(Cl)cc1S(=O)(=O)N1CCC(C(N)=O)CC1,660
17,Cc1ccc(-c2cn3c(n2)N(C(=O)C2CCCO2)CCC3)cc1 (configuration not stated),635
18,O=C(c1ccc2ccccc2n1)N1CCN(C(=O)c2nnn3c2COC(c2ccccc2)C3)CC1 (configuration not stated),833
19,CCOc1ccc(S(=O)(=O)N2CCc3c(c(-c4nnc(-c5ccccc5)o4)nn3C)C2)cc1,996
20,CCN1CCCn2cc(S(=O)(=O)N3CCN(c4ccccc4Cl)CC3)cc2C1=O,912
21,CCCCn1cc(S(=O)(=O)NCc2cccc(F)c2)c2cccnc21,964

row,Structure (SMILES),RP-LC retention time [s]
1,Cc1nc(-c2ccccc2)nn1C1CCN(S(=O)(=O)c2cccnc2)C1 (configuration not stated),716
2,O=C(c1noc2ccc(S(=O)(=O)N3CCCc4ccccc43)cc12)N1CCCCC1,1090
3,O=C(c1ccc(F)c(Cl)c1)N1CCc2nc[nH]c2C1,592
4,Cn1cc(S(=O)(=O)N2CCC(C(=O)Nc3ccccn3)CC2)cc1C(=O)N1CCCC1,635
5,CCOC(=O)C1=C(CN(C)Cc2ccccc2)NC(=O)NC1c1cccc(OC)c1OC (configuration not stated),659
6,NC(=O)C1CCN(c2oc(-c3ccccc3Cl)nc2S(=O)(=O)c2ccccc2)CC1,765
7,COc1ccccc1NC(=O)C1CCN(c2cnc(N3CCCCCC3)nc2)CC1,826
8,Cc1noc(C)c1-c1ccc(S(=O)(=O)NC2CCCC2)cc1,911
9,CC1Cc2ccccc2N1C(=O)CCC(=O)N1CCN(c2cc(=O)n(C(C)C)c(=O)n2C(C)C)CC1 (configuration not stated),890
10,O=C(CN1C(=O)CCC1=O)N(Cc1ccsc1)Cc1ccco1,710
11,Cc1ncc2c(n1)CCCN(CC(=O)N1CCCC1)C2=O,579
12,O=C1CO[C@@H](C(=O)O)[C@H](c2ccccc2)N1,576
13,Cc1cnc(C)n1C1CCN(C(=O)c2cccn2C)C1 (configuration not stated),580
14,O=C(Nc1ccc(OCC(=O)N2CCCN(c3ncccn3)CC2)nc1)C1CC1,612
15,Cc1cc(S(=O)(=O)N2CCn3c(nnc3C3CCN(C(C)C)C3)C2)ccc1Cl (configuration not stated),637
16,COc1ccccc1CNC1=NCCNC12CCN(S(=O)(=O)c1cc(C)ccc1C)CC2,775
17,c1ccc2c(c1)CC(N1CCN(c3cccc4c3OCCO4)CC1)C2,741
18,O=C(c1ccc(S(=O)(=O)c2cccc(Cl)c2)c([N+](=O)[O-])c1)N1CCN(c2ccccn2)CC1,722
19,CC1=C(c2ccc(C)cc2)S(=O)(=O)N=C1N1CCCN(C(=O)c2ccc(F)cc2)CC1,859
20,CCCOC(=O)c1[nH]c2c(c1C)C(=O)CC(c1cc(OC)c(OC)c(OC)c1)C2 (configuration not stated),610
21,COc1cc(-c2ccccc2)nc2ccc(NS(=O)(=O)c3ccc(NC(C)=O)cc3)cc12,653

# Other lines, results leading:
row,RP-LC retention time [s],Structure (SMILES)
1,1100,Cc1ccccc1Nc1c(-c2cc(Br)ccc2F)nc2ccc(Cl)cn12
2,982,Cc1nc2c(sc3nc(-c4ccccc4)ccc32)c(=O)n1CC(=O)Nc1ccccc1F
3,838,O=C(NCCc1ccc(Cl)cc1)C1CCCN(c2ncnc3c2nc2n3CCCCC2)C1 (configuration not stated)
4,994,Clc1ccccc1-c1nc(-c2ccnc(N3CCOCC3)c2)no1
5,1180,COC(=O)c1cc(C2CC2)nc2c1c(=O)n(Cc1ccc(Cl)cc1)c(=O)n2C
6,972,COC(=O)c1cccc(NC(=O)N2CCC(c3nc(C(=O)N(C)C)c(C)o3)CC2)c1
7,705,CCc1nnc(-c2ccc3ccn(CC(=O)Nc4cc(C)ccn4)c3c2)o1
8,766,COc1ccc(Cl)cc1NC(=O)Nc1ccc2c(c1)C(=O)N(C)CCO2
9,1150,Cc1ccc(-c2cc3c(N4CCCC(C(=O)NCCC5=CCCCC5)C4)nccn3n2)c(C)c1 (configuration not stated)
10,640,CCNC(=O)C1CCCN(c2nc3ncn(CC(=O)NCc4ccc5c(c4)OCO5)c(=O)c3s2)C1 (configuration not stated)
11,653,O=C(c1ccc(F)c(F)c1)N1CCCC1c1nc(-c2ccccc2)no1 (configuration not stated)
12,740,CCc1nc2c(=O)n(CC(=O)N(CC)Cc3ccccc3)nc(C)c2s1
13,1060,Cc1ccc(NC(=O)Cn2cnc3c(sc4nc(-c5ccccc5)ccc43)c2=O)c(C)c1
14,742,CCn1ccc2c(cc(C(=O)Nc3ccccc3C(F)(F)F)n2C)c1=O
15,1160,Cc1ccsc1C(=O)Nc1ccc(-c2nc(-c3ccccc3)co2)cc1
16,1250,COc1ccccc1-c1csc(NC(=O)c2sc(-c3ccccc3)nc2C)n1
17,975,COc1cc(OC)c(NC(=O)N2CCc3nc(-c4ccccc4)ncc3C2)cc1Cl
18,842,CN(C(=O)c1nc(N2CCSCC2)c2cnn(C)c2n1)c1cccc(Cl)c1
19,693,Cc1ccc(CNC(=O)C2c3ccccc3CC(=O)N2C)o1 (configuration not stated)
20,696,Cc1ccc(-c2nccn3cc(C(=O)O)nc23)cc1
21,1310,Cc1nn(-c2nc(-c3ccc(Cl)cc3)cs2)c(C)c1CC(=O)N1CCCCC1C (configuration not stated)
22,863,CCOC(=O)c1c(C)[nH]c(C(=O)N2CCCC(C(=O)NCc3cccc(C)c3)C2)c1C (configuration not stated)
23,693,CCOc1ccc(NC(=O)c2cc(=O)c3cc(CC)ccc3o2)c2cccnc12

row,RP-LC retention time [s],Structure (SMILES)
1,763,O=C(Cn1nc2c(N3CCCCCC3)nccn2c1=O)Nc1cccc(Cl)c1
2,1230,CCCOc1nc2ccccc2nc1N1CCCC(C(=O)NC(C)c2ccccc2)C1 (configuration not stated)
3,777,O=C(CSC1CCc2ccccc2NC1=O)Nc1ccccc1 (configuration not stated)
4,872,CCc1nc(OCC(=O)Nc2ccc(C)c(F)c2)c2ccccc2n1
5,916,COC(=O)c1ccc2c(c1)nnn2Cc1ccc(F)cc1
6,1080,Cc1c(C(=O)NCc2ccc(OC(C)C)cc2)cc(-c2ccccc2)n1C
7,692,Cc1csc(NC(=O)CSc2nnc(NC(=O)c3cc(C)on3)s2)n1
8,760,Cc1noc2nc(CCC(=O)NCCCc3ccccc3)nc(N3CCOCC3)c12
9,808,Cc1ccccc1Nc1c(-c2cc(Br)ccc2F)nc2ccccn12
10,783,Cc1ccc2[nH]cc(CCN3CC(C(=O)Nc4ccc5c(c4)OCO5)CC3=O)c2c1 (configuration not stated)
11,855,CCC(=O)Nc1ccc(-n2cnc(C(=O)N3CCN(c4cccc(C)c4C)CC3)c2)nc1
12,965,O=C(Cn1cccc1-c1nnc(C2CCC2)o1)Nc1ccc(F)c(Cl)c1
13,747,COc1ccc(-c2c(NC(=O)c3ccco3)oc3c(C)cccc3c2=O)cc1OC
14,951,COc1ccc(C(=O)Cn2nc3n(CC(C)C)c(=O)c4ccccc4n3c2=O)cc1OC
15,862,CC(C)n1cnc(S(=O)(=O)N2CCC(C(=O)Nc3cccc(C(F)(F)F)c3)CC2)c1
16,600,COc1ccc(Nc2c(C(=O)N3CCCC3)cnc3nc(C)ccc23)c(OC)c1
17,781,CCn1c(=O)c(C(=O)NCc2ccc(C)cc2)nc2cccnc21
18,575,Cc1oncc1CN1CCN(C(=O)c2c(F)cccc2Cl)CC1
19,599,Cc1nnc(N2CCC(C(=O)N3CCC(C(N)=O)CC3)CC2)c2nn(-c3ccccc3)c(C)c12
20,652,CCOc1ccc(NC(=O)Cn2c(N3CCOCC3)nc3cc(C)n(C)c3c2=O)cc1
21,1040,Cc1csc(-n2nc(C)c(CC(=O)Nc3cccc(Cl)c3)c2C)n1
22,1130,Cc1cccc(NC(=O)CSc2cc(N3CCN(c4ccccc4F)CC3)ncn2)c1C
